Source: US6737383B1, “Herbicidal oxadiazolidines” (priority 1999, dated 2004)

How the values were obtained:
bedstraw = test: Test B pre/postemergence bedstraw; assay type: in vivo, Galium aparine
How it was run: (§1)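 Response is a visual 0-to-10 score relative to untreated plants, where 0 means no effect and 10 means complete control, taken twelve to sixteen days after application. Treatments went onto soil at planting and onto foliage of 1- to 4-leaf plants, using a surfactant-containing non-phytotoxic solvent.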

blackgrass = test: Test B pre/postemergence blackgrass; assay type: in vivo, Alopecurus myosuroides
How it was run: as §1

surinam grass = test: Test B pre/postemergence surinam grass; assay type: in vivo, Brachiaria decumbens
How it was run: as §1

cocklebur = test: Test B pre/postemergence cocklebur; assay type: in vivo, Xanthium strumarium
How it was run: as §1

giant foxtail = test: Test B pre/postemergence giant foxtail; assay type: in vivo, Setaria faberii
How it was run: as §1

morningglory = test: Test B pre/postemergence morningglory; assay type: in vivo, Ipomoea hederacea; settings: for Morningglory plant response rating: Postemergence; for Plant response rating, Morningglory: Preemergence
How it was run: as §1

pigweed = test: Test B pre/postemergence pigweed; assay type: in vivo, Amaranthus retroflexus
How it was run: as §1

rape = test: Test B pre/postemergence rape; assay type: in vivo, Brassica napus
How it was run: as §1

soybean = test: Test B pre/postemergence soybean; assay type: in vivo, Glycine max
How it was run: as §1

sugar beet = test: Test B pre/postemergence sugar beet; assay type: in vivo, Beta vulgaris
How it was run: as §1

wheat = test: Test B pre/postemergence wheat; assay type: in vivo, Triticum aestivum
How it was run: as §1

wild oat = test: Test B pre/postemergence wild oat; assay type: in vivo, Avena fatua
How it was run: as §1

purple nutsedge = test: Test B pre/postemergence purple nutsedge; assay type: in vivo, Cyperus rotundus
How it was run: as §1

smallflower flatsedge = test: Test B flood test smallflower flatsedge; assay type: in vivo, Cyperus difformis
How it was run: (§2)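 Flood test on plants grown to the 2-leaf stage; treated plants kept in greenhouse twelve to sixteen days, then visually rated against controls on a 0 (no effect) to 10 (complete control) scale.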

duck salad = test: Test B flood test duck salad; assay type: in vivo, Heteranthera limosa
How it was run: as §2

bamyardgrass = test: Test B flood test barnyardgrass; assay type: in vivo, Echinochloa crus-galli
How it was run: as §2

[1] = Postemergence, Rate 62 g/ha, scale 0 to 10, 0 is no effect, 10 is complete control
[2] = Postemergence, Rate 250 g/ha, scale 0 to 10, 0 no effect, 10 complete control
[3] = Preemergence, Rate 62 g/ha, scale 0 to 10, 0 is no effect, 10 is complete control
[4] = Preemergence, Rate 125 g/ha, scale 0 to 10 (0 no effect, 10 complete control)
[5] = Preemergence, Rate 250 g/ha, scale of 0 to 10 where 0 is no effect and 10 is complete control
[6] = Preemergence, Rate 500 g/ha, scale 0 (no effect) to 10 (complete control)
[7] = Rate 125 g/ha, Postemergence, scale 0 to 10, 0 no effect, 10 complete control
[8] = Rate 500 g/ha, Postemergence, scale 0 to 10, 0 no effect, 10 complete control
[9] = Rate 62 g/ha, scale 0 to 10, 0 is no effect, 10 is complete control
[10] = Rate 125 g/ha, Postemergence section (flood test species), scale 0 to 10, 0 no effect, 10 complete control
[11] = Rate 500 g/ha, listed under Postemergence (flood test species), scale 0 to 10, 0 no effect, 10 complete control
[12] = flood test, listed under Postemergence, Rate 250 g/ha, scale 0 to 10, 0 no effect, 10 complete control

Cc1cccc(Cl)c1-n1c(=O)on(C(=O)N(c2ccc(Cl)cc2)C(C)C)c1=O [Compound 54]
7: Bedstraw plant response rating (bedstraw; [8]) | Giant foxtail plant response rating (giant foxtail; [6])
4: Bedstraw plant response rating (bedstraw; [2]) | Redroot pigweed plant response rating (pigweed; [8])
— — 0 0 0: Bedstraw plant response rating (bedstraw; [6])
5: Giant foxtail plant response rating (giant foxtail; [8])
— 0 0 0 0: Cocklebur plant response rating (cocklebur; [6])
2: Blackgrass plant response rating (blackgrass; [6]) | Blackgrass plant response rating (blackgrass; [8]) | B. signalgrass plant response rating (surinam grass; [6]) | Cocklebur plant response rating (cocklebur; [8]) | Plant response rating, Giant foxtail (giant foxtail; [3]) | Morningglory plant response rating (morningglory; Rate 250 g/ha, scale 0 to 10, 0 no effect, 10 complete control) | Morningglory plant response rating (morningglory; Rate 500 g/ha, scale 0 to 10, 0 no effect, 10 complete control) | Redroot pigweed plant response rating (pigweed; [2])
3: Giant foxtail plant response rating (giant foxtail; [1]) | Giant foxtail plant response rating (giant foxtail; [2]) | Plant response rating, Giant foxtail (giant foxtail; [4]) | Plant response rating, Giant foxtail (giant foxtail; [5]) | Giant foxtail plant response rating (giant foxtail; [7])
0: Bedstraw plant response rating (bedstraw; [1]) | Plant response rating, Bedstraw (bedstraw; [3]) | Plant response rating, Bedstraw (bedstraw; [4]) | Plant response rating, Bedstraw (bedstraw; [5]) | Bedstraw plant response rating (bedstraw; [7]) | Blackgrass plant response rating (blackgrass; [1]) | Blackgrass plant response rating (blackgrass; [2]) | Plant response rating, Blackgrass (blackgrass; [3]) | Plant response rating, Blackgrass (blackgrass; [4]) | Plant response rating, Blackgrass (blackgrass; [5]) | Blackgrass plant response rating (blackgrass; [7]) | B. signalgrass plant response rating (surinam grass; [1]) | B. signalgrass plant response rating (surinam grass; [2]) | Plant response rating, B. signalgrass (surinam grass; [3]) | Plant response rating, B. signalgrass (surinam grass; [4]) | Plant response rating, B. signalgrass (surinam grass; [5]) | B. signalgrass plant response rating (surinam grass; [7]) | B. signalgrass plant response rating (surinam grass; Rate 500 g/ha, Postemergence, scale of 0 to 10 where 0 is no effect and 10 is complete control) | Cocklebur plant response rating (cocklebur; [1]) | Cocklebur plant response rating (cocklebur; [2]) | Plant response rating, Cocklebur (cocklebur; [3]) | Plant response rating, Cocklebur (cocklebur; [4]) | Plant response rating, Cocklebur (cocklebur; [5]) | Cocklebur plant response rating (cocklebur; [7]) | Morningglory plant response rating (morningglory; [9]) | Plant response rating, Morningglory (morningglory; [9]) | Plant response rating, Morningglory (morningglory; Rate 125 g/ha, scale 0 to 10 (0 no effect, 10 complete control)) | Plant response rating, Morningglory (morningglory; Rate 250 g/ha, scale of 0 to 10 where 0 is no effect and 10 is complete control) | Morningglory plant response rating (morningglory; Rate 125 g/ha, scale 0 to 10, 0 no effect, 10 complete control) | Redroot pigweed plant response rating (pigweed; [1]) | Plant response rating, Redroot pigweed (pigweed; [3]) | Plant response rating, Redroot pigweed (pigweed; [4]) | Plant response rating, Redroot pigweed (pigweed; [5]) | Redroot pigweed plant response rating (pigweed; [6]) | Redroot pigweed plant response rating (pigweed; [7]) | Rape plant response rating (rape; [1]) | Rape plant response rating (rape; [2]) | Plant response rating, Rape (rape; [3]) | Plant response rating, Rape (rape; [4]) | Plant response rating, Rape (rape; [5]) | Rape plant response rating (rape; [6]) | Rape plant response rating (rape; [7]) | Rape plant response rating (rape; [8]) | Soybean plant response rating (soybean; [1]) | Soybean plant response rating (soybean; [2]) | Plant response rating, Soybean (soybean; [3]) | Plant response rating, Soybean (soybean; [4]) | Plant response rating, Soybean (soybean; [5]) | Soybean plant response rating (soybean; [6]) | Soybean plant response rating (soybean; [7]) | Soybean plant response rating (soybean; [8]) | Sugarbeets plant response rating (sugar beet; [1]) | Sugarbeets plant response rating (sugar beet; [2]) | Plant response rating, Sugarbeets (sugar beet; [3]) | Plant response rating, Sugarbeets (sugar beet; [4]) | Plant response rating, Sugarbeets (sugar beet; [5]) | Sugarbeets plant response rating (sugar beet; [6]) | Sugarbeets plant response rating (sugar beet; [7]) | Sugarbeets plant response rating (sugar beet; [8]) | Wheat plant response rating (wheat; [1]) | Wheat plant response rating (wheat; [2]) | Plant response rating, Wheat (wheat; [3]) | Plant response rating, Wheat (wheat; [4]) | Plant response rating, Wheat (wheat; [5]) | Wheat plant response rating (wheat; [6]) | Wheat plant response rating (wheat; [7]) | Wheat plant response rating (wheat; [8]) | Wild oats plant response rating (wild oat; [1]) | Wild oats plant response rating (wild oat; [2]) | Plant response rating, Wild oats (wild oat; [4]) | Plant response rating, Wild oats (wild oat; [5]) | Wild oats plant response rating (wild oat; [6]) | Wild oats plant response rating (wild oat; [7]) | Wild oats plant response rating (wild oat; [8]) | Nutsedge plant response rating (purple nutsedge; [1]) | Nutsedge plant response rating (purple nutsedge; [2]) | Plant response rating, Nutsedge (purple nutsedge; [3]) | Plant response rating, Nutsedge (purple nutsedge; [4]) | Plant response rating, Nutsedge (purple nutsedge; [5]) | Nutsedge plant response rating (purple nutsedge; [6]) | Nutsedge plant response rating (purple nutsedge; [7]) | Nutsedge plant response rating (purple nutsedge; [8]) | S. Flatsedge plant response rating (smallflower flatsedge; [1]) | S. Flatsedge plant response rating (smallflower flatsedge; [10]) | S. Flatsedge plant response rating (smallflower flatsedge; [11]) | S. Flatsedge plant response rating (smallflower flatsedge; [12]) | Ducksalad plant response rating (duck salad; [1]) | Ducksalad plant response rating (duck salad; [10]) | Ducksalad plant response rating (duck salad; [11]) | Ducksalad plant response rating (duck salad; [12]) | Barnyardgrass plant response rating (bamyardgrass; [1]) | Barnyardgrass plant response rating (bamyardgrass; [10]) | Barnyardgrass plant response rating (bamyardgrass; [11]) | Barnyardgrass plant response rating (bamyardgrass; [12])
